Like-named read-outs stand apart in the source and are kept apart here.
Assays:
[1] = test system: ET-1-induced contraction of rat intact intrapulmonary arterial rings; test: Ex-vivo vascular function assay: relaxation of ET-1-contracted intact rat intrapulmonary arterial rings; format: cell-based; conditions: 8 nM ET-1, 10 nM ambrisentan, 30 nM tadalafil, alone or in combination, mean±SEM
Method: The selective type-A endothelin receptor antagonist, ambrisentan ([…]®), and the phosphodiesterase type 5 inhibitor, tadalafil ([…]®), are currently used to treat pulmonary arterial hypertension. Isolated rat intact intrapulmonary arterial rings contracted with 8 nM endothelin-1 (ET-1) were relaxed by 10 nM ambrisentan (from Gilead Sciences, Inc.) and 30 nM tadalafil (from Sequoia Research Products Ltd. Pangbourne, UK) by 30±13% (mean±SEM, n=3) and 12±5% (n=3), respectively, whereas both drugs in combination relaxed the intact intrapulmonary arterial rings by […] (FIG. 1, n=3, P<0.01 vs. mono-administration of ambrisentan or tadalafil). Intrapulmonary arteries (200-500 μm) and aortas were isolated from Sprague Dawley rats (300-320 g) and cut into 1-2 mm rings. Rings were mounted in a myograph and constricted with a submaximal concentration (8 nM) of ET-1. Ambrisentan, Bosentan, Macitentan and Tadalafil alone and in combination were evaluated in ET-constricted rings. Isolated rat intact intrapulmonary arterial rings contracted with 8 nM endothelin-1 (ET-1) were relaxed by 10 nM ambrisentan and 30 nM tadalafil by 29±1% (mean±SEM, n=4) and 22±2% (n=4), respectively, whereas both drugs in combination relaxed the intact intrapulmonary arterial rings by 85±3% (FIG. 2, n=4, P<0.01 vs. mono-administration of ambrisentan or tadalafil).

[2] = test system: ET-1-induced contraction of endothelium-denuded pulmonary arterial rings; test: ET-1-induced contraction of endothelium-denuded pulmonary arterial rings; format: cell-based, rat; conditions: FIG. 5, 10 nM ambrisentan, 30 nM tadalafil, n=4
Method: (§1) Intrapulmonary arteries (200-500 μm) and aortas were isolated from Sprague Dawley rats (300-320 g) and cut into 1-2 mm rings. Rings were mounted in a myograph and constricted with a submaximal concentration (8 nM) of ET-1. Ambrisentan, Bosentan, Macitentan and Tadalafil alone and in combination were evaluated in ET-constricted rings.

[3] = Free plasma concentration in the rat PAH study; format: in vivo; conditions: Sprague-Dawley, read-out: free or unbounded plasma concentration
Method: (§2) Rats were dosed with vehicle (0.5% hydroxypropyl methylcellulose (HPMC), 0.2% Tween 80, and 0.9% benzyl alcohol in water), AMB or TAD (quaque die) beginning the day they were placed in chambers. Plasma was collected when animals were terminated.
The free or unbounded plasma concentration for 10 mpk AMB dosing was about 104 nM in both cases. The free or unbounded plasma concentrations of TAD was about 24 nM when administered separately, or about 26 nM when administered with AMB, whether 1 mpk or 10 mpk.

[4] = test system: hypoxia-induced mean pulmonary arterial pressure (mPAP) in male SD rats; test: Hypoxia-induced pulmonary arterial hypertension (PAH) animal model; format: in vivo; conditions: 3 wks hypoxia, rat
Method: as §2, with “Male SD Rats (225-250 g) were housed in chambers under normoxic (sea level) or hypoxic (10% oxygen) conditions for 3 weeks. Rats” for “Rats”, “terminated. [table]” for “terminated.”

ETA receptor = target: T1, ETA receptor (Homo sapiens, UniProt P25101); conditions: read-out: affinity for the ETA receptor; cited from earlier work
T1 sequence (P25101 21-427): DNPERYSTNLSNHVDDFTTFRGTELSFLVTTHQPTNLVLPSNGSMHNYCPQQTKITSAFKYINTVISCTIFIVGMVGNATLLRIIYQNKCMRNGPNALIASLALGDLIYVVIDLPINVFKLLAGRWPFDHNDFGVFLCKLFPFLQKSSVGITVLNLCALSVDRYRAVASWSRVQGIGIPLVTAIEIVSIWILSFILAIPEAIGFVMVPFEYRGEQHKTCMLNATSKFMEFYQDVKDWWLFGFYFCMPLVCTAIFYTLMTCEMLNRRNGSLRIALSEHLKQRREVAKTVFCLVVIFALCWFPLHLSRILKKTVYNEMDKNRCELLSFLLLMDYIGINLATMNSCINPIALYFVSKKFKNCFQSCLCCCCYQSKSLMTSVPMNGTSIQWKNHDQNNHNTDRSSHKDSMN

[5] = test system: ET-1-induced contraction of endothelium-denuded aortic rings; test: ET-1-induced contraction of endothelium-denuded aortic rings; format: cell-based, rat; conditions: 10 nM ambrisentan, n=4
Method: as §1

[6] = test system: ET-1-induced contraction of rat intact thoracic aortic rings; test: Ex-vivo vascular function assay: relaxation of ET-1-contracted intact rat thoracic aortic rings; format: cell-based; conditions: for relaxation of intact thoracic aortic rings in the presence of ET-1: Example 1, FIG. 1, 8 nM ET-1, 10 nM ambrisentan, 30 nM tadalafil, alone or in combination, n=3; for IC50: Rattus norvegicus, read-out: IC50 to relax ET-1 constricted aortic rings
Method: as §1, with “The combination of both 10 nM ambrisentan and 30 nM tadalafil relaxed the ET-1-induced contraction of the intact thoracic aortic rings by 81±7% (FIG. 1, n=3; P<0.01 vs. mono-administration of ambrisentan or tadalafil). […] Intrapulmonary” for “Intrapulmonary”

[7] = Example 2, FIG. 2, 100 nM bosentan, 30 nM macitentan

| SMILES | relaxation of intact intrapulmonary arterial rings contracted with ET-1 [1, 7] | reduction of contraction induced by ET-1 [2] | concentration at 3 weeks ([3]; 1 mpk, AMB 1 mpk, administered separately) | concentration at 3 weeks ([3]; AMB 1 mpk, administered along with TAD) | concentration at 3 weeks ([3]; AMB 10 mpk, separately or with TAD (both cases)) | inhibition of PAP (mPAP±SEM) ([4]; 1 mpk AMB once daily) | inhibition of PAP (mPAP±SEM) ([4]; 10 mpk AMB once daily) | Ki (ETA receptor) | relaxation of intact intrapulmonary arterial rings contracted with ET-1 ([1]; Example 1, FIG. 1, n=3) | reduction of contraction induced by ET-1 [5] | relaxation of intact thoracic aortic rings in the presence of ET-1 [6] | concentration at 3 weeks ([3]; 10 mpk, TAD (10 mpk), administered separately) | concentration at 3 weeks ([3]; TAD (10 mpk), administered with AMB, 1 mpk or 10 mpk) | inhibition of PAP (mPAP±SEM) ([4]; 10 mpk TAD once daily) | IC50 ([6]; in the presence of 10 nM ambrisentan) | IC50 ([6]; tadalafil alone) |
| --- | --- | --- | --- | --- | --- | --- | --- | --- | --- | --- | --- | --- | --- | --- | --- | --- |
| CCCNS(=O)(=O)Nc1ncnc(OCCOc2ncc(Br)cn2)c1-c1ccc(Br)cc1 [macitentan] | 31±2% |  |  |  |  |  |  |  |  |  |  |  |  |  |  |  |
| COC(c1ccccc1)(c1ccccc1)[C@H](Oc1nc(C)cc(C)n1)C(=O)O [ambrisentan, (2S)-2-[(4,6-dimethylpyrimidin-2-yl)oxy]-3-methoxy-3,3-diphenylpropanoic acid] | 29±1% | 23±4% | ~17 nM | ~13 nM | ~104 nM | 28.4±1.1% | 42.1±2.4% | ~0.012 nM | 30±13% | 26±7% | 32±3% |  |  |  |  |  |
| COc1ccccc1Oc1c(NS(=O)(=O)c2ccc(C(C)(C)C)cc2)nc(-c2ncccn2)nc1OCCO [bosentan] | 25±1% |  |  |  |  |  |  |  |  |  |  |  |  |  |  |  |
| CN1CC(=O)N2[C@H](c3ccc4c(c3)OCO4)c3[nH]c4ccccc4c3C[C@@H]2C1=O [tadalafil, (6R-trans)-6-(1,3-benzodioxol-5-yl)-2,3,6,7,12,12a-hexahydro-2-methyl-pyrazino [1′, 2′:1,6] pyrido[3,4-b]indole-1,4-dione] | 22±2% | failed to inhibit contraction |  |  |  |  |  |  | 12±5% | failed to inhibit contraction | 16±4% | ~24 nM | ~26 nM | 23.2±1.3% | 16 nM | 79 nM |

Source: patent US9549926B2, “Compositions and methods of treating pulmonary hypertension” (Gilead Sciences, Inc., priority 2010, dated 2017)
